# Test system: serum fucosylated PSA
# Test: Sandwich ELISA, anti-PSA antibody and biotin-labeled lectin
# Assay type: binding, human
# Conditions: for Δ (=A − B): reaction value of Prostate cancer 4 minus Healthy 1; for lectin reaction value B of Healthy 1: serum of Healthy 1; for lectin reaction value A of Prostate cancer 4: serum of Prostate cancer 4, GS 6 (3 + 3)
# Protocol: The anti-PSA antibody from which sugar chains had been removed was diluted to 5 μg/mL with PBS. 25 μL of this diluted solution was added to each well of an ELISA plate and allowed to stand at 37° C. for 12 hours, and then the additive solution was discarded.
# 150 μL of PBS containing 0.05% Tween 20 (product name: polyoxyethylene sorbitan monolaurate, from Nacalai Tesque, Inc.) was added to each well, and then the additive solution was discarded. This manipulation was repeated three times in total.
# 25 μL of 1% BSA/PBS was added to each well and allowed to stand at 37° C. for 1 hour, and then the additive solution was discarded.
# 150 μL of PBS containing 0.05% Tween 20 was added to each well, and then the additive solution was discarded. This manipulation was repeated three times in total.
# To graph a calibration curve, 25 μL of the fucosylated PSA reference standard diluted with 1% BSA/PBS to a concentration of 0 to 200 ng/mL was added to each well and allowed to stand at room temperature for 1 hour, and then the additive solution was discarded. In addition, to detect the fucosylated PSA in the serum of the subject by the lectin, 25 μL of serum of “Healthy 1” and “Prostate cancer 4” 2-fold diluted with PBS was added to each well and allowed to stand at room temperature for 1 hour, and then the additive solution was discarded.
# In Reference Example 1, 25 μL of a biotin-labeled PhoSL diluted to 0.1 μg/mL with 0.1% BSA/PBS (pH 7.4) was added to each well and allowed to stand at 4° C. for 30 minutes, and then the additive solution was discarded. In Example 1, 25 μL of a biotin-labeled PhoSL diluted to 0.1 μg/mL with 0.1% BSA/10-fold diluted PBS+glycine-NaOH (pH 9.6) was added to each well and allowed to stand at 4° C. for 30 minutes, and then the additive solution was discarded.
# 25 μL of a horseradish peroxidase (HRP)-labeled streptavidin solution (from Vector Laboratories, Inc., concentration: 0.4 μg/mL, in 1% BSA/PBS) was added to each well and allowed to stand at room temperature for 30 minutes, and then the additive solution was discarded.
# 25 μL of chromogenic substrate for HRP (product name: TMB, from Kirkegaard & Perry Laboratories, Inc.) was added to each well and allowed to stand at room temperature for 10 minutes.
# 25 μL of 1M phosphoric acid was added to terminate the reaction.
# Absorbance (Ab) at 450 nm and 630 nm was measured using a plate reader, and a measurement (Ab450-630) was obtained.
# A calibration curve was graphed by plotting signals (reaction values, Ab450-630) of the fucosylated PSA reference standard with the biotin-labeled PhoSL. A Signal (Ab450-630) of the biotin-labeled PhoSL corresponding to the fucosylated PSA concentration of 10 ng/mL was defined as 10 U/mL.
# The signals of biotin-labeled PhoSL (Ab450-630) for the serum fucosylated PSA in the subject samples A were assigned to the calibration curve to calculate reaction values (unit: U/mL).
# The PhoSL reaction values for the subject samples A were measured by the same operation as in Example 1. From the PhoSL reaction values, an average value and a median value were determined. Furthermore, a standard cutoff value (89.7 U/mL) was used to determine a detection rate (positive rate) of the prostate cancer patients, and a false detection rate (false positive rate) of the healthy persons.
# Comparative Example 2 in Table 9 indicates results of detecting the serum fucosylated PSA using AAL (AAL reaction values) in the subject samples A. Specifically, in Reference Example 1, AAL reaction values were measured in the same manner as in Reference Example 1 except that the biotin-labeled PhoSL was replaced with a biotin-labeled AAL. A standard cut-off value for the AAL reaction values was 894.8 U/mL. As in Example 2, an average value, a median value, a positive rate and a false positive rate were determined from the AAL reaction values.
substance,measurement,setting,value
"PhoSL peptide: synthesized Pholiota squarrosa lectin peptide, SEQ ID No. 6 (Lys substitutions at 1, 20, 39; 40th Gly deleted) (KPVPVTKLVCDGDTYKCTAKLDFGDGRWVAQWDTNVFHK; Modification of SEQ ID(1) in which Ala at position 1, Tyr at position 20 and Thr at position 39 are substituted with Lys, and Gly at position 40 is deleted.)",Δ (=A − B),pH in lectin reaction 7.4,100.5 U/mL
same,Δ (=A − B),pH in lectin reaction 9.6,234.4 U/mL
same,lectin reaction value B of Healthy 1,pH in lectin reaction 7.4,1.0 U/mL
same,lectin reaction value B of Healthy 1,pH in lectin reaction 9.6,Below detection limit
same,lectin reaction value A of Prostate cancer 4,pH in lectin reaction 7.4,101.5 U/mL
same,lectin reaction value A of Prostate cancer 4,pH in lectin reaction 9.6,234.4 U/mL

# — patent US20200264182A1, “METHOD FOR DETECTING PROSTATE CANCER” (J-OIL MILLS, INC., priority 2017, published 2020)
